Data from patent publication USRE31071E, “6-Aza-3H-1,4-benzodiazepines” (Deutsche Gold- und Silber-Scheideanstalt vormals Roessler, priority 1971, dated 1982).

Key:
[1] = tested on: mice; experiment: rotating rod test (ataxic activity); type: in vivo; details: quotient of ataxic to anxiolytic activity, orally, should be as large as possible
Description: Furthermore, there is given in this table the ataxic activity. The ratio of ataxic activity to the anxiolytic activity is of the greatest significance in using a material as an anxiolytic agent. This quotient should be as large as possible since an ataxic activity is undesirable. Ataxic activity means that the coordination of the muscular movements is disturbed--ataxicdisturbance of the muscular coordination. This means at the dosage at which a marked anxiolytic acitvity is present there should not be found a noteworthy ataxice. The toxicity, in case the data exists above the ataxic activity, is no longer important since the amount which is toxic is always considerably higher than the amount at which 50% (ED50) of the animals have an ataxic effect. The ataxic effect was measured on mice on the pattern of the rotating rod.
In the rotating rod test the animals (mice) were firest placed on a rotating rod 15 minutes after the application of the test material and then were placed on the rotating rod every 15 minutes and the animals which fell down within 2 minutes measured positive. From the number of animals which fell down expressed in percent there were drawn time-effect curves and the areas defined by it entered as percent effect in a probability network, the dosage-effect-line prepared and the ED50 read off. The ED50 mg/kg body weight of the mouse again specifies the dosage at which 50% of all the animals show a typical ataxic effect.

[2] = First Int. Pharmacological Meeting, Vol. 7; cited from earlier work
[3] = in words; cited from earlier work
[4] = J. Amer. Med. Ass. Vol. 170 (1959); cited from earlier work

Row | Structure (SMILES) | ED50 Rotating Rod / ED50 Card. Shock [1] | other results
1 | CC1N=C(c2ccccc2)c2nc(Cl)ccc2NC1=O (racemic) [Example 4, 3-Methyl-5-phenyl-6-aza-7-chloro-1,2-dihydro-3H-1,4-benzodiazepinone-(2)] | 4.3 | –
2 | O=C1CN=C(c2ccccc2Cl)c2nc(Cl)ccc2N1 [Example 6, 5-(o-Chlorophenyl)-6-aza-7-chloro-1,2-dihydro-3H-1,4-benzodiazepinone-(2)] | 16.5 | –
3 | CN1C(=O)CN=C(c2ccccc2F)c2nc(Cl)ccc21 [Example 9, 1-Methyl-5-(o-fluorophenyl)-6-aza-7-chloro-1,2-dihydro-3H-1,4-benzodiazepinone-(2)] | 6.1 | –
4 | O=C1CN=C(c2ccccc2F)c2nc(Cl)ccc2N1 [Example 10, 5-(-Fluorophenyl)-6-aza-7-chloro-1,2-dihydro-3H-1,4-benzodiazepinone-(2)] | 10.4 | –
5 | O=C(O)CCC(=O)OC1N=C(c2ccccc2Cl)c2nc(Cl)ccc2NC1=O (stereo not drawn) [Example 12] | 13.5 | –
6 | O=C1Nc2ccc(Cl)nc2C(c2ccccc2Cl)=NC1O (stereo not drawn) [Example 13, 3-Hydroxy-5-o-chlorophenyl-6-aza-7-chloro-1,2-dihydro-3H-1,4-benzodiazepinone-(2)] | 15.0 | –
7 | CC(=O)OC1N=C(c2ccccc2Cl)c2nc(Cl)ccc2N(C(C)=O)C1=O (stereo not drawn) [Example 15, 1-Acetyl-3-acetoxy-5-(o-chlorophenyl)-6-aza-7-chloro-1,2-dihydro-3H-1,4-benzodiazepinone-(2)] | 6.7 | –
8 | CN1C(=O)CN=C(c2ccccc2)c2nc(Cl)ccc21 [Example 17, 1-Methyl-5-phenyl-6-aza-7-chloro-1,2-dihydro-3H-1,4-benzodiazepinone-(2)] | 6.2 | –
9 | C=CCN1C(=O)CN=C(c2ccccc2)c2nc(Cl)ccc21 [Example 18, 1-Allyl-5-phenyl-6-aza-7-chloro-1,2-dihydro-3H-1,4-benzodiazepinone-(2)] | 8.2 | –
10 | O=C1CN=C(c2ccccc2)c2nc(Cl)ccc2N1CC1CC1 [Example 19] | 7.7 | –
11 | CN1C(=O)CN=C(c2ccccc2Cl)c2nc(Cl)ccc21 [Example 21, 1-Methyl-5-(o-chlorophenyl)-6-aza-7-chloro-1,2-dihydro-3H-1,4-benzodiazepinone-(2)] | 10.2 | –
12 | CN1C(=S)CN=C(c2ccccc2Cl)c2nc(Cl)ccc21 [Example 24, 1-Methyl-5-(o-chlorophenyl)-6-aza-7-chloro-1,2-dihydro-3H-1,4-benzodiazepinthione-(2)] | 12.5 | –
13 | CC(NN)c1ccccc1 (stereo not drawn) [alpha phenyl-ethyl hydrazine] | – | stimulating activity / sedative action [2]: strong stimulating activity
14 | CN(C)CCOC(C)(c1ccccc1)c1ccc(Cl)cc1 (stereo not drawn) [chlorphenoxamine] | – | antihistamine activity [3]: antihistamine activity reduced; anticholinergic activity [4]: strengthening of its anticholinergic activity
